Measurements published in article PMC10714400, “Antimicrobial Peptide–Peptoid Hybrids with and without Membrane Disruption” (ACS Infectious Diseases, 2023).
Entries after “also recorded” stand apart in the source; their conditions may differ. Where a SMILES comes first, the peptide text is derived from it. [ ]: non-standard residue; d: D form. Nleu = CC(C)CNCC(=O)O; Nlys = NCCCCNCC(=O)O

Tests used:
A549 cells = assay: Cell viability assay by Alamar blue; format: cell-based; conditions: CSV; read-out: Toxicity on A549 lung cancern cells
Procedure: The data are represented as the mean value ± SD, n = 3. […] (c) Vesicle leakage assay for a selection of compounds. Lipid vesicles made of EYPG or EYPC were suspended in a buffer (10 mM TRIS, 107 mM NaCl, pH 7.4). After 45 s, the indicated compound was added to reach the desired concentration. After 240 s, 30 μL of 1.2% TritonX-100 was added for full fluorescein release. […] See Supporting Information for the full curves, all of the data, and procedures.
HEK293 cells were cultured and maintained in DMEM high glucose (Dulbecco’s modified Eagle medium, Sigma Aldrich) medium supplemented with 10% FBS (Sigma Aldrich) and 1% penicillin/streptomycin. A549 cells were cultured and maintained in RPMI-1640 medium (Sigma Aldrich), supplemented with 10% FBS (Sigma Aldrich) and 1% penicillin/streptomycin. The cells were handled and subcultured according to the manufacturer instructions. Cells were incubated in a humidified incubator at 37 °C in the presence of 5% CO2.
Assays on HEK293, A549 cells were performed as described earlier.[74] […]

[1] = Lipid vesicle leakage assay; conditions: 10 mM TRIS, 107 mM NaCl, pH 7.4; for Vesicle leakage activity on EYPC vesicles: egg yolk phosphatidyl choline vesicles; for Vesicle leakage activity on EYPG vesicles: fluorescein-loaded anionic EYPG vesicles
Procedure: (c) Vesicle leakage assay for a selection of compounds.
EYPG - EB11 1 EYPC - EB11
Figure S2: Vesicle leakage experiments using 5(6)-carboxyfluorescein induced by peptides. EYPG and EYPC
compound was added after 45 sec. After 240 seconds, 30 µL Triton X-100 1.2% was added for full release of […]

P. aeruginosa PAO1 = assay: Time–kill assay; format: cell-based, Pseudomonas aeruginosa
Excerpt: Figure 1 Killing profile of selected compounds on bacteria a) against E. coli W3110 measured in full MH at pH 7.4, b) against P. aeruginosa PAO1 in full MH at pH 7.4, c) against E. coli W3110 in diluted MH at pH 8.5, and d) against P. aeruginosa PAO1 in dilute MH at pH 8.5. The assay was repeated twice in triplicate, and the data represent the mean ± SD, n = 6.

E. coli W3110 [2] = assay: NPN outer membrane permeability assay; format: cell-based, Escherichia coli
Procedure: (§1) Figure 4 Interactions of peptide–peptoid hybrids with bacterial outer and inner membranes of E. coli. (a, b) NPN outer membrane permeability assay. E. coli W3110 bacteria were treated with increasing compound concentrations in the presence of 10 μM NPN. The fluorescence intensity (λex = 340 nm, λem = 415 nm) was measured within 5 min. Data represent mean ± SD, n = 3. (c, d) DiSC3(5) inner membrane depolarization assay. E. coli W3110 bacteria were treated with increasing compound concentrations in the presence of 2 μM DiSC3(5). The fluorescence intensity (λex = 610 nm, λem = 660 nm) was measured within 5 min after treatment, and the data represent mean ± SD, n = 3.
A single colony of P. aeruginosa PAO1 and E. coli W3110 was grown overnight while being shaken (150 rpm) in LB-broth (5 mL) at 37 °C. 100 μL of the overnight culture was regrown in 10 mL of LB broth with shaking (200 rpm) to the exponential phase (OD600 = 1, corresponding to 10^9 CFU/mL). Bacteria were washed three times with HEPES buffer (5 mM HEPES, 5 mM glucose, pH 7.4), but not diluted yet to their final concentration. 200 μL of peptide samples was added to the first well of 96-well plates (black wells, flat bottom, BRAND GmbH Wertheim, Germany), 100 μL of HEPES/glucose buffer with 10 μM N-phenyl-1-naphthylamine (NPN, purchased from Acros Organics) was added in all the wells, and the compounds were diluted serially by 1/2 (add a control with a final volume of 200 μL with 10 μM NPN in buffer only). Ca. 10 min before the measurement and the final dilution of the bacteria, the plates and the 10 μM NPN in HEPES/glucose buffer (for bacteria dilution) were incubated at 37 °C (prior to the dilution of the bacteria with buffer containing NPN 10 μM). Later, the bacteria were diluted to OD600 = 0.5 with the NPN in HEPES/glucose buffer. 100 μL of the bacterial suspension was added to each well. In this case, the final OD of bacteria was 0.25, the final concentration of the desired compound 64 μg/mL, and NPN 10 μM. The control wells are buffer containing NPN (10 μM, 200 μL) and bacterial suspension containing NPN in HEPES buffer. The plate was measured with a Tecan instrument Infinite M1000 within 5 min. The plate was enabled to shake for 5 s before measurement. The excitation wavelength used was 340 ± 5 nm, and emission wavelength was 415 ± 5 nm. The assay was repeated at least three times.

E. coli W3110 [3] = assay: DiSC3(5) inner membrane depolarization assay; format: cell-based, Escherichia coli; conditions: E. coli W3110, 2 μM DiSC3(5)
Procedure: as §1
A single colony of P. aeruginosa PAO1 and E. coli W3110 was grown overnight with shaking (150 rpm) in LB broth (5 mL) at 37 °C. A 100 μL portion of the overnight culture was regrown in 10 mL of LB broth with shaking (200 rpm) to the exponential phase (OD600 = 1, corresponding to 10^9 CFU/mL). Bacteria were washed once with HEPES buffer (5 mM HEPES, 5 mM glucose, pH 7.4) and diluted to an OD600 = 0.5. Stock solution of 10 mM of 3,3′-dipropylthiadicarbocyanine iodide (DiSC3(5), purchased from Sigma) was prepared in DMSO. Stock solutions of 2 mg/mL of the compounds were prepared in sterilized milli-Q water and diluted to the beginning concentration of 128 μg/mL in 200 μL of HEPES buffer containing 4 μM of the fluorescent probe DiSC3(5). The diluted samples were added to the first well of 96-well plates (black wells, flat bottom, BRAND GmbH Wertheim, Germany) and diluted serially by 1/2. 100 μL of the bacterial suspension in HEPES buffer (without fluorophore) was added to each well. In this case, the final OD of bacteria was 0.25, the final concentration of peptide in the first column was 64 μg/mL, and DiSC3(5) was 2 μM. The control wells are buffer containing DiSC3(5) and bacterial suspension containing DiSC3(5) in HEPES buffer. The plate was measured with a Tecan instrument Infinite M1000 within 5 min. […] The assay was measured in triplicate and repeated at least two times.[65],[75]

[4] = P. aeruginosa PAO1, dilute MH at pH 8.5

| Compound | IC50 (A549 cells) [µM] | Vesicle leakage activity on EYPC vesicles [1] | Vesicle leakage activity on EYPG vesicles [1] | Time–kill, killing profile (P. aeruginosa PAO1; P. aeruginosa PAO1, full MH at pH 7.4) | Outer membrane permeabilization (NPN) (E. coli W3110 [2]; not told) | Inner membrane depolarization (DiSC3(5)) (E. coli W3110 [3]) | Time–kill, killing profile (P. aeruginosa PAO1; [4]) | Outer membrane permeabilization (NPN) (E. coli W3110 [2]; E. coli W3110, 10 μM NPN) |
| --- | --- | --- | --- | --- | --- | --- | --- | --- |
| CC(C)C[C@H](NC(=O)[C@H](CC(C)C)NC(=O)[C@H](CC(C)C)NC(=O)[C@H](CCCCN)NC(=O)[C@H](CC(C)C)NC(=O)[C@H](CC(C)C)NC(=O)CN(CCCCN)C(=O)[C@H](CC(C)C)NC(=O)[C@H](CC(C)C)NC(=O)CN(CCCCN)C(=O)CNCCCCN)C(N)=O [EB6, kkLLkLLKLLL] (H-[Nlys][Nlys]LL[Nlys]LLKLLL-NH2) | 19 ± 1 | very low levels of activity | very strong activities | completely killed | permeabilized the outer membrane | strongly depolarized the inner membrane |  |  |
| CC(C)CN(CC(N)=O)C(=O)CN(CC(C)C)C(=O)CN(CC(C)C)C(=O)CN(CCCCN)C(=O)CN(CC(C)C)C(=O)CN(CC(C)C)C(=O)CN(CCCCN)C(=O)CN(CC(C)C)C(=O)CN(CC(C)C)C(=O)CN(CCCCN)C(=O)CNCCCCN [EB11, kkllkllklll] (H-[Nlys][Nlys][Nleu][Nleu][Nlys][Nleu][Nleu][Nlys][Nleu][Nleu][Nleu]-NH2) |  | no activity | weak or no vesicle leakage activity |  |  | partly depolarized the inner membrane | killed P. aeruginosa, however at a rather slow rate | significant outer membrane permeabilization |
| CC(C)C[C@H](NC(=O)[C@H](CCCCN)NC(=O)CNCCCCN)C(=O)N[C@@H](CC(C)C)C(=O)N[C@@H](CCCCN)C(=O)N[C@@H](CC(C)C)C(=O)N[C@@H](CC(C)C)C(=O)N[C@@H](CCCCN)C(=O)N[C@@H](CC(C)C)C(=O)N[C@@H](CC(C)C)C(=O)N(CC(N)=O)CC(C)C [EB1] (H-[Nlys]KLLKLLKLL[Nleu]-NH2; N-terminus assumed) | 69 ± 2 | very low levels of activity | very strong activities |  |  |  |  |  |
| CC(C)C[C@H](NC(=O)CN(CC(C)C)C(=O)[C@H](CC(C)C)NC(=O)CN(CCCCN)C(=O)[C@H](CC(C)C)NC(=O)CN(CC(C)C)C(=O)[C@H](CCCCN)NC(=O)CN(CC(C)C)C(=O)[C@H](CC(C)C)NC(=O)CN(CCCCN)C(=O)[C@@H](N)CCCCN)C(N)=O [EB9, KkLlKlLkLlL] (H-K[Nlys]L[Nleu]K[Nleu]L[Nlys]L[Nleu]L-NH2) |  | no activity | weak or no vesicle leakage activity; also recorded: inactive |  | significant outer membrane permeabilization | partly depolarized the inner membrane | killed P. aeruginosa, however at a rather slow rate |  |
| H-KKLLKLLKLLL-NH2 [ln65, reference compound] | 20 ± 1 |  |  |  |  |  |  |  |
| CC(C)C[C@H](NC(=O)[C@H](CC(C)C)NC(=O)[C@H](CC(C)C)NC(=O)[C@H](CCCCN)NC(=O)[C@H](CC(C)C)NC(=O)[C@H](CC(C)C)NC(=O)CN(CCCCN)C(=O)CN(CC(C)C)C(=O)CN(CC(C)C)C(=O)CN(CCCCN)C(=O)CNCCCCN)C(N)=O [EB5, kkllkLLKLLL] (H-[Nlys][Nlys][Nleu][Nleu][Nlys]LLKLLL-NH2) |  |  |  |  | permeabilized the outer membrane |  |  |  |
| CC(C)C[C@H](NC(=O)[C@H](CC(C)C)NC(=O)[C@H](CC(C)C)NC(=O)[C@@H](CCCCN)NC(=O)[C@H](CC(C)C)NC(=O)[C@H](CC(C)C)NC(=O)[C@@H](CCCCN)NC(=O)[C@H](CC(C)C)NC(=O)[C@H](CC(C)C)NC(=O)[C@@H](CCCCN)NC(=O)[C@H](N)CCCCN)C(N)=O [ln69, kkLLkLLkLLL, reference compound] (H-[dK][dK]LL[dK]LL[dK]LLL-NH2) | 21 ± 3 |  |  |  |  |  |  |  |
